Assay results reported in patent US20250199015A1, “CYCLIN-DEPENDENT KINASE 2 INHIBITORS FOR MEDICAL TREATMENT” (INCYCLIX BIO, LLC, priority 2022, published 2025).

Key:
OVCAR-3 cells [1] = assay: CellTiter Glo cell proliferation assay; format: cell-based, human; details: Homo sapiens, OVCAR-3, 144 h; six days
Method: Plates were returned to the incubator for six additional days. On day six post dosing, plates were removed and treated with CellTiter Glo reagent following manufacturer's specifications. Plates were incubated 45 minutes at room temperature and run on Biotek luminometer with 1 sec/well detection. Results were converted to Microsoft Excel and transferred to Graphpad Prism for analysis. […] These cell types are distinguished by either gained of cyclin E1 expression or activation (Kuramochi) or intrinsic amplification of cyclin E1 (OVCAR-3, COV318).
In a similar manner, OVCAR-3 cells were grown in RPMI-1640, 1× Glutamax, 10% FBS and 1×ITS at 37° C., 5% CO2. Cells were plated at 500 cells per well in white wall/clear bottom plates and incubated overnight. […] Plates returned to incubator for six additional days. On day six post dosing, plates were removed and treated with CellTiter Glo reagent following manufacturer's specifications. Plates were incubated 45 minutes at room temperature and run on Biotek luminometer with 1 sec/well detection. Results were converted to Microsoft Excel and transferred to GraphPad Prism for analysis.

FUOV-1 cells = assay: CellTiter-Glo cell proliferation assay; format: cell-based; details: Homo sapiens, 144 h; 6 days; read-out: IC50 in FUOV1 cells
Method: The Kuramochi human ovarian carcinoma cell line was grown in RPMI-1640/1× Glutamax/10% fetal bovine serum and the FUOV-1 human ovarian carcinoma cell line was grown in DMEM/F12/1× Glutamax/10% fetal bovine serum and both were plated at 1,000 cells/well in Corning 96 well white wall/clear bottom tissue culture treated plates. […] Plates were removed from incubator at each specified timepoint and treated with CellTiter-Glo (Promega, Inc) following manufacturer specifications. Plates were then read on CLARIOstar luminometer with 1 sec/well integration. Results were converted to Microsoft Excel and transferred to GraphPad Prism for Analysis (FIG. 16A-B).

OVCAR-3 cells [2] = assay: Cell cycle by EdU flow cytometry (dose, time, washout, tracing); format: cell-based, human; details: 600 nM
Method: Cells were plated at 100,000 cells/well in Corning 6 cm tissue culture treated plates. […] Cells were collected and fixed in 1% paraformaldehyde. Cells were incubated with Alexa488 azide dye as described by Thermo Scientific. Cells were then incubated with Fxcycle-violet and RNase. Cells were analyzed on a BD Celesta and data compiled using FloJo and GraphPad.
The OVCAR3 human ovarian carcinoma cell line was grown in RPMI-1640/1× Glutamax/1× Insulin/10% fetal bovine serum and was plated at 300,000 cells/well in Corning 6 cm tissue culture treated plates. […] Cells were treated for the indicated amount of time (24 hours or 48 hours), with 10 μM EdU added for the last hour of treatment. Cells were collected and fixed in 1% paraformaldehyde. Cells were incubated with Alexa 488 (A488) azide dye as described by Thermo Scientific. Cells were then incubated with FarRed dye and RNase. Cells were analyzed on a BD Celesta and data compiled using FloJo and GraphPad Prism (FIG. 13A-B).
The OVCAR3 human ovarian carcinoma cell line was grown in RPMI-1640/1× Glutamax/1× Insulin/10% fetal bovine serum and was plated at 300,000 cells/well in Corning 6 cm tissue culture treated plates. […] At 24 hours, the remaining plates were rinsed with media before un-treated media was added back. Cells were collected at the indicated times, with 10 μM EdU added for the last hour (FIG. 14A). Cells were collected and fixed in 1% paraformaldehyde. Cells were incubated with Pacific blue azide dye as described by Thermo Scientific. Cells were then incubated with FarRed dye and RNase. Cells were analyzed on a BD Celesta and data compiled using FloJo and GraphPad. […] By 18 hours, OVCAR-3 cells were in G2 or reentering G1. Cells appeared to remain somewhat synchronized over 48 hours.
The OVCAR3 human ovarian carcinoma cell line was grown in RPMI-1640/1× Glutamax/1× Insulin/10% fetal bovine serum and was plated at 300,000 cells/well in Corning 6 cm tissue culture treated plates. […] Cells were divided into two sets. The first set was treated for the indicated amount of time, with 10 μM EdU added for the last hour of treatment before being collected. The second set of cells were treated for the indicated amount of time and had EdU added for one hour before the timepoint. Then the media was aspirated, the cells washed, and re-treated with treatment media. The second set of cells was collected at 48 hours, allowing for tracing of the EdU positive cells. Cells were collected and fixed in 1% paraformaldehyde. Cells were incubated with Alexa 488 (A488) azide dye as described by Thermo Scientific. Cells were then incubated with FarRed dye and RNase. Cells were analyzed on a BD Celesta and data compiled using FloJo and GraphPad. […] Several “snap shots” of cells at various timepoints, followed by where the cells from S phase ended up at the end of 48 hours of treatment, were collected. […] It appears that the cells in S phase at after 6 hours of treatment are arresting in G1 (FIG. 15B). At 24 hours of treatment, little to no cells were in S phase so there were no cells to trace (FIG. 15C). Although the DMSO sample appears largely different at 48 hours, the distribution appears similar to the DMSO, EdU free cells at 48 hours. […] (FIG. 15D).

H526 cells = assay: CellTiter Glo cell proliferation assay (single agent and chemotherapy combination); format: cell-based, human; details: Homo sapiens, NCI-H526, 144 h; six days
Method: Plates returned to incubator for six additional days. On day six post dosing, plates were removed and treated with CellTiter Glo reagent following manufacturer's specifications. Plates incubated 45 minutes at room temperature and run on a Biotek luminometer with 1 sec/well detection. Results were converted to Microsoft Excel and transferred to GraphPad Prism for analysis.
Cells were plated at 250 cells per well in white wall/clear bottom plates and incubated overnight. […] Plates returned to the incubator for six additional days. On day six post dosing, plates were removed and treated with CellTiter Glo reagent following manufacturer's specifications. Plates incubated 45 minutes at room temperature and run on a Biotek luminometer with 1 sec/well detection. Results were converted to Microsoft Excel and transferred to GraphPad Prism for analysis.
(§1) Dose curves ranged from 300 pM to 10 μM in triplicate and treatments lasted for 6 days. Plates were removed from incubator at each specified timepoint and treated with CellTiter-Glo (Promega, Inc) following manufacturer specifications. Plates were then read on CLARIOstar luminometer with 1 sec/well integration.
as §1, with “integration. Results were converted to Microsoft Excel and transferred to GraphPad Prism for Analysis.” for “integration.”

[3] = test system: caspase 3/7 in H526 cells; assay: CaspaseGlo-3/7 activation; format: cell-based, human; details: for IC50: Homo sapiens
Method: (§2) Plates were removed from incubator and treated with CaspaseGlo-3/7 (Promega, Inc) following manufacturer specifications. Plates were then read on a Biotech luminometer with 1 sec/well integration. Results were converted to Microsoft Excel and transferred to GraphPad Prism for Analysis (FIG. 22D).
as §2, with “from the” for “from”, “incubator at each specified timepoint” for “incubator”, “on” for “on a”, “27A-C).” for “22D).”

IC50 (OVCAR-3 cells [1]): 294 nM
IC50 (H526 cells): 305 nM
IC50 ([3]; NCI-H526, 48 h, 48 hours): 1250 nM
IC50 ([3]; NCI-H526, 72 h, 72 hours): 495 nM
SMILES: COCc1cc(C(=O)Nc2cc([C@H]3CC[C@@H](OC(=O)NC(C)C)C3)[nH]n2)n(C)n1 [PF-07104091, reference compound]
IC50 (FUOV-1 cells): 80 nM
G1 arrest over 48 h (OVCAR-3 cells [2]): appears to hold cells in G1 over 48 hours
caspase 3/7 activation ([3]; 24 hours): no appreciable caspase 3/7 activation
